# Results: patent publication US9241936B2, “Use of rupatadine in the manufacture of pharmaceutical composition for treating chronic obstructive pulmonary disease” (BEIJING WEIFENG YIMIN BIO-TECHNOLOGY LIMITED COMPANY, priority 2012, dated 2016)
# Entries after “also recorded” stand apart in the source; their conditions may differ. Where two headings read alike, the source gives them in different places.
# Key:
# histamine or PAF [1] = conditions: cited from earlier work; for inhibition of blister: dogs, blister by subcutaneous histamine or PAF, rupatadine 0.3-10 mg/kg, oral administration
# [2] = system: smoking-induced COPD mice; test: amount of inflammatory cells in bronchoalveolar lavage fluid of smoking-induced COPD mice; format: in vivo, C57BL/6 mice
# Description: Main agents and animals for experiments: Cigarettes used in the experiment, type 3R4F, were purchased from Tobacco Research Center, University of Kentucky, USA. C57BL/6 mice on level SPF used in the experiment (male, aged 6-8 weeks, 16-18 g) were purchased from Institute of Animal, Chinese academy of medical sciences.
# Preparation of COPD animal model: C57BL/6 mice were put in a smoke box and 5 cigarettes were inhaled without filter tip each time. The ratio of smoke to air was 1:6, and the whole flow rate of gas was 150 ml/min. Smoking experiment was conducted 4 times a day, 30 minutes for each time and last for 24 weeks.
# Therapy: grouping and feeding animal models with medicaments. The groups were as table 1:
# The mice were dissected at neck and the weasand was exposed for intubation. The lavage amount of PBS was 0.8 ml and the lavage was conducted 3-5 times. The lavage solution was recycled and centrifuged at 1500 r for 10 minutes at 4° C. The supernate was recycled and kept at −20° C. for the test of cytokines.
# Cells were reselected and precipitated by 1 ml 1% BSA in PBS. 10 μl resuspension solution was taken for calculating the amount of cells and the hematology analyzer was used for analysis. It can be seen from FIG. 1, compared with the sham-operation group, the total number of hemameba (FIG. 1A), monocyte (FIG. 1B), neutrophile granulocyte (FIG. 1C), lymphocyte (FIG. 1D), basophil (FIG. 1E), and eosinophils (FIG. 1F) in bronchoalveolar lavage fluid of smoking-induced COPD mice increased extremely remarkably.
# [3] = system: smoking-induced COPD mice; test: amount of inflammatory cytokines in bronchoalveolar lavage fluid of smoking-induced COPD mice (ELISA); format: in vivo, C57BL/6 mice
# Procedure: Main agents and animals for experiments: Cigarettes used in the experiment, type 3R4F, were purchased from Tobacco Research Center, University of Kentucky, USA. C57BL/6 mice on level SPF used in the experiment (male, aged 6-8 weeks, 16-18 g) were purchased from Institute of Animal, Chinese academy of medical sciences. […] C57BL/6 mice were put in a smoke box and 5 cigarettes were inhaled without filter tip each time. The ratio of smoke to air was 1:6, and the whole flow rate of gas was 150 ml/min. Smoking experiment was conducted 4 times a day, 30 minutes for each time and last for 24 weeks. Therapy: grouping and feeding animal models with medicaments. The groups were as table 1: [table] The mice were dissected at neck and the […] exposed for intubation. […] The lavage solution was recycled and centrifuged at 1500 r for 10 minutes at 4° C. The supernate was recycled and kept at -20° C. for the test. 100 μl supernate was taken to conduct ELISA examination, and commercial available ELISA kit was used to test the amount of inflammatory cytokines. It can be seen from FIG. 2, compared with the sham-operation group, the content of IL-2 (FIG. 2A), IL-4 (FIG. 2C), IL-17 (FIG. 2D) increased remarkably in lungs of COPD mice.
# [4] = system: smoking-induced COPD mice; test: pathological evaluation (HE staining) of lung tissue of smoking-induced COPD mice; format: in vivo, C57BL/6 mice; conditions: 6 mg/kg i.g. once a day for 4 weeks
# Procedure: Main agents and animals for experiments: Cigarettes used in the experiment, type 3R4F, were purchased from Tobacco Research Center, University of Kentucky, USA. C57BL/6 mice on level SPF used in the experiment (male, aged 6-8 weeks, 16-18 g) were purchased from Institute of Animal, Chinese academy of medical sciences. […] C57BL/6 mice were put in a smoke box and 5 cigarettes were inhaled without filter tip each time. The ratio of smoke to air was 1:6, and the whole flow rate of gas was 150 ml/min. Smoking experiment was conducted 4 times a day, 30 minutes for each time and last for 24 weeks. Therapy: grouping and feeding animal models with medicaments. The groups were as table 1: [table] HE staining method is also named Hematoxylin-Eosin staining method. Hematoxylin dye liquor is alkaline, and mainly colors intranuclear chromatin and intracytoplasmic ribosome into bluish violet. Eosin is acidic dye, and mainly colors the components in cytoplasm and extracellular matrix. The lung tissues on the right lower lobe was cut, fixed by 4 wt % paraformaldehyde and then embedded by paraffin. The largest cross-section of the paraffin embedding lung tissue was stained by HE staining method, and the result was shown in FIG. 3.
# [5] = system: TLR4 mutant C3H/HeJ mice with emphysema; test: pathological evaluation (HE staining) of mice with emphysema induced by TLR4 mutant; format: in vivo; conditions: i.g. once a day for 4 weeks
# Description: Animals for experiment: C3H/HeN wild type mice on SPF level were purchased from Beijing Vitalriver Experimental Animals Limited Company. TLR4 mutant C3H/HeJ mice were purchased from Institute of model animals, Nanjing University.
# Method: Fed the SPF mice and the TLR4 mutant mice in experimental animal center of Institute of pharmaceutics research, Chinese academy of medical sciences. Provide free diet under constant temperature and humidity. The mice were killed until they were 3 months old.
# Therapy: Grouping and feeding animal models with medicaments.
# HE staining method is also named Hematoxylin-Eosin staining Hematoxylin dye liquor is alkaline, and mainly colors intranuclear chromatin and intracytoplasmic ribosome into bluish violet; Eosin is acidic dye, and mainly colors the components in cytoplasm and extracellular matrix.
# The lung tissues on the right lower lobe was cut, fixed by 4 wt % paraformaldehyde and then embedded by paraffin. The largest cross-section of the paraffin embedding the lung tissue was stained by HE staining method, and the result was shown in FIG. 4.
# PAF [6] = conditions: read-out: IC50 of platelet aggregation induced by PAF, cited from earlier work
# PAF [7] = conditions: whole blood of dogs; read-out: IC50 of platelet aggregation induced by PAF; cited from earlier work
# histamine or PAF [8] = conditions: cited from earlier work
# mastocytes = conditions: cited from earlier work
# eosinophil = conditions: cited from earlier work
# [9] = cited from earlier work
# [10] = system: patients suffering seasonal or perennial allergic rhinitis; conditions: cited from earlier work
# mouse = conditions: 1000 mg/Kg; cited from earlier work
# macaque = conditions: 10 mg/Kg; cited from earlier work
# [11] = system: rats, Guinea pigs and dogs; conditions: cited from earlier work
# histamine H1 receptors [12] = conditions: cited from earlier work
# [13] = system: pulmonary fibrosis induced by Bleomycin of mammals; conditions: cited from earlier work
# histamine H1 receptors [14] = molecular target: histamine H1 receptors (Cavia porcellus, UniProt P31389); conditions: cited from earlier work
# [15] = bronchoalveolar lavage fluid, 6 mg/kg i.g. once a day for 4 weeks after modeling
# [16] = 6 mg/Kg rupatadine treated group
# [17] = bronchoalveolar lavage fluid, ELISA, 6 mg/kg i.g. once a day for 4 weeks after modeling
# Chain of histamine H1 receptors (Cavia porcellus, UniProt P31389) (P31389 whole entry): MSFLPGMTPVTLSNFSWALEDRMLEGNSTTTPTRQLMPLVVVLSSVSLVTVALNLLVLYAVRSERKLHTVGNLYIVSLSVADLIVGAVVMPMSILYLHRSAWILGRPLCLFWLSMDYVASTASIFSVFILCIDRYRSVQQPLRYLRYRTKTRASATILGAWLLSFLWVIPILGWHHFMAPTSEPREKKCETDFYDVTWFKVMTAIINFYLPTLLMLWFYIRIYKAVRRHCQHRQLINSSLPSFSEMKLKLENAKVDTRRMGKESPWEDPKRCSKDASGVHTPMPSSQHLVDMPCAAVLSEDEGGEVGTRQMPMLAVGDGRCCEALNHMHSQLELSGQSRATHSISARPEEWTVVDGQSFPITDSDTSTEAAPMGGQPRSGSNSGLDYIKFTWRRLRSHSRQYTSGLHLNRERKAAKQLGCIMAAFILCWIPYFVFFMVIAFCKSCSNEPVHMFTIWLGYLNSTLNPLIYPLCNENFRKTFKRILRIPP
compound,measurement,setting,value
O=C(O)COCCN1CCN(C(c2ccccc2)c2ccc(Cl)cc2)CC1 (stereo not shown) [cetirizine],inhibition of blister,histamine or PAF [1],can only inhibit the blister induced by histamine
CCOC(=O)N1CCC(=C2c3ccc(Cl)cc3CCc3cccnc32)CC1 [loratadine],inhibition of blister,histamine or PAF [1],can only inhibit the blister induced by histamine
"Cc1cncc(CN2CCC(=C3c4ccc(Cl)cc4CCc4cccnc43)CC2)c1 [rupatadine, Rupatadine]",amount of various inflammatory cells in bronchoalveolar lavage fluid compared to the model group,[2]; 6 mg/kg rupatadine treated group,could remarkably reduce the amount of various inflammatory cells
same,Basophil,[2]; [15],24.816 * 10^4 number/mL
same,Eosinophils,[2]; [15],34.692 * 10^4 number/mL
same,Lymphocyte,[2]; [15],32.694 * 10^5 number/mL
same,Monocyte,[2]; [15],49.504 * 10^5 number/mL
same,Neutrophile granulocyte,[2]; [15],33.864 * 10^5 number/mL
same,total hemameba,[2]; [15],13.69 * 10^6 number/mL
same,content of IFN-γ,[3]; [16],did not affect the content of IFN-γ
same,content of various inflammatory cytokines in lungs of COPD mice,[3]; [16],could reduce the content of various inflammatory cytokines
same,IFN-γ,[3]; [17],26.28 pg/mL
same,IL-2,[3]; [17],6.71 pg/mL
same,IL-4,[3]; [17],6.54 pg/mL
same,IL-17,[3]; [17],35.53 pg/mL
same,"lung tissue pathology, structure of alveoli (HE staining)",[4],could effectively recover normal structure of alveoli
same,"lung tissue pathology, emphysema / structure of alveoli (HE staining)",[5],could effectively recover normal structure of alveoli
same,IC50,PAF [6]; platelet rich plasma (of rabbits),2.9 µM
same,IC50,PAF [6],0.2 µM
same,IC50,PAF [7],0.29 µM
same,duration of effect,histamine or PAF [1]; after intake of rupatadine,24 h
same,time of best potency after intake,histamine or PAF [1]; after intake of rupatadine,4 h
same,inhibition of blister,histamine or PAF [1],can effectively inhibit blister
same,inhibition of conjunctivitis,"histamine or PAF [8]; Guinea pig, induced by histamine or PAF",can inhibit conjunctivitis induced by histamine or PAF
same,"therapy effect of eye drops, times better than loratadine","histamine or PAF [8]; applied to eye drops, versus loratadine",10 times
same,inhibition of degranulation of mastocytes,mastocytes,can inhibit
same,inhibition of chemotaxis of eosinophil,eosinophil,can inhibit
same,time for blood concentration to reach the peak,[9]; after intaking tablet,1 h
same,time for blood concentration to reach the peak,[9]; after intaking the capsule,1.5 h
same,half-life period,[9]; as stated in b6,5.9 h
same,half-life period,[9]; oral administration,12 h
same,alleviation of symptoms relative to placebo,"[10]; 2.5 mg, 5 mg, 10 mg, 20 mg per day, two weeks",can alleviate the symptoms more effectively than placebo
same,effects compared with loratadine,"[10]; 10 mg or 20 mg per day rupatadine vs 10 mg per day loratadine, two weeks, seasonal allergic rhinitis",better effects than intaking 10 mg per day loratadine
same,side effects on central nervous system,"[10]; 10 mg per day, compared with cetirizine",little side effects on central nervous system
same,therapeutic effects compared with ebastine,"[10]; 10 mg rupatadine vs 10 mg ebastine daily for 2 weeks, seasonal allergic rhinitis",better therapeutic effects than ebastine
same,alleviation of symptoms of seasonal allergic rhinitis compared with loratadine and ebastine,[10]; same dosage,can alleviate the symptoms of seasonal allergic rhinitis more than loratadine and ebastine
same,alleviation of nasal and optical symptoms relative to placebo,"[10]; seasonal allergic rhinitis patients, 10 mg and 20 mg per day, two weeks",much more alleviated
same,period of QTC and QRS,mouse,would not be extended
same,period of QTC and QRS,macaque,would not be extended
same,arrhythmia,[11],nor would it lead to arrhythmia
same,affinity to histamine H1 receptors,histamine H1 receptors [12],good affinity
same,selectivity to peripheral nervous receptors H1,histamine H1 receptors [12],highly selective
same,effect on pulmonary fibrosis induced by Bleomycin,[13]; in vivo,can convert the pulmonary fibrosis induced by Bleomycin
same,lethal rate caused by pulmonary fibrosis induced by Bleomycin,[13]; mammals,declining the lethal rate
same,anti-histamine activity compared with other medicaments,histamine H1 receptors [14]; in vitro,"stronger anti-histamine activity than terfenadine, loratadine, cetirizine, hydroxyzine, diphenhydramine; also recorded: the same as desloratadine"
same,IC50,"histamine H1 receptors [14]; read-out: anti-histamine activity IC50, ileum of Guinea pig in vitro",0.0035 µM
same,"anti-histamine activity, times stronger than loratadine",histamine H1 receptors [14]; versus loratadine,80 times
same,"anti-histamine activity, times stronger than other anti-histamine medicaments",histamine H1 receptors [14]; versus other anti-histamine medicaments,100 times
"IL-17A: IL-17A used in positive control group, purchased from R&D Company","lung tissue pathology, emphysema / structure of alveoli (HE staining)",[5],could effectively inhibit the further development of emphysema in mice
